Test results reported in US20040053822A1, “Inducing cellular immune responses to mage2/3 using peptide and nucleic acid compositions” (priority 2002, published 2004).

How the values were obtained:
HLA-B*3501 = HLA-B*3501 (Homo sapiens, UniProt P01889, A329T/A93T/A95T/C349S/D201E/D98Y/E176V/E187L/E204Q/E69T/I218V/K202T/L119I/Q94N/R155S/R180L/S121R/S35A/S48A/T118I/V127L/V306I/V36M/Y140S/Y91F); test: Purified HLA class I peptide binding assay, B*3501; conditions: binding affinity, HLA-B7 supermotif-bearing peptides
HLA-B*5101 (B51) = HLA-B*5101 (B51) (Homo sapiens, UniProt P01889, A329T/A93T/A95T/C349S/D138N/D201E/D98Y/E187L/E204Q/E69T/G107R/I218V/K202T/L105A/L119W/N104I/Q94N/R106L/R155S/R180L/S101N/S121T/S35A/S48A/V306I/V36M/Y195H/Y91F); test: Purified HLA class I peptide binding assay, B51; conditions: binding affinity, HLA-B7 supermotif-bearing peptides; read-out: B*5101 nM
HLA-B*5301 = HLA-B*5301 (Homo sapiens, UniProt P01889, A329T/A93T/A95T/C349S/D201E/D98Y/E176V/E187L/E204Q/E69T/G107R/I218V/K202T/L105A/L119I/N104I/Q94N/R106L/R155S/R180L/S101N/S121R/S35A/S48A/T118I/V127L/V306I/V36M/Y140S/Y91F); test: Purified HLA class I peptide binding assay, B*5301; conditions: binding affinity, HLA-B7 supermotif-bearing peptides
HLA-B*5401 = HLA-B*5401 (Homo sapiens, UniProt P01889, A329T/C349S/D138N/D201E/E176V/E187T/E204Q/E69G/I76V/K202T/L119W/R155S/R180L/S121T/S35A/S48A/V127L/V306I/V36M/Y140L); test: Purified HLA class I peptide binding assay, B*5401; conditions: binding affinity, HLA-B7 supermotif-bearing peptides
HLA-B*0702 = HLA-B*0702 (Homo sapiens, UniProt P01889); test: Purified HLA class I peptide binding assay, B*0702; conditions: binding affinity, HLA-B7 supermotif-bearing peptides

| IC50 (HLA-B*3501) [nM] | IC50 (HLA-B*5101 (B51)) [nM] | IC50 (HLA-B*5301) [nM] | IC50 (HLA-B*5401) [nM] | IC50 (HLA-B*0702) [nM] | SMILES |
| --- | --- | --- | --- | --- | --- |
| 5540 | 117 | 620 | 59 |  | CC[C@H](C)[C@H](NC(=O)[C@H](Cc1ccc(O)cc1)NC(=O)[C@H](CO)NC(=O)[C@@H](NC(=O)[C@H](CCC(=O)O)NC(=O)[C@@H](NC(=O)[C@H](CC(C)C)NC(=O)[C@H](C)NC(=O)[C@H](CCCNC(=N)N)NC(=O)[C@@H]1CCCN1C(=O)[C@@H](N)Cc1ccccc1)C(C)C)[C@@H](C)O)C(=O)O |
|  | 4.2 | 4.4 | 0.6 | 2.9 | CC[C@H](C)[C@H](NC(=O)[C@@H](NC(=O)[C@H](Cc1ccc(O)cc1)NC(=O)[C@H](CC(C)C)NC(=O)[C@H](Cc1c[nH]cn1)NC(=O)[C@H](CO)NC(=O)[C@@H](NC(=O)[C@@H]1CCCN1C(=O)[C@@H](N)Cc1ccccc1)[C@@H](C)CC)[C@@H](C)CC)C(=O)O |
| 360 |  | 233 | 1.4 | 2.9 | CC[C@H](C)[C@H](NC(=O)[C@@H]1CCCN1C(=O)[C@@H]1CCCN1C(=O)[C@H](Cc1ccc(O)cc1)NC(=O)[C@H](CO)NC(=O)[C@@H](NC(=O)[C@H](Cc1c[nH]cn1)NC(=O)[C@@H]1CCCN1C(=O)[C@@H](N)Cc1ccccc1)[C@@H](C)CC)C(=O)O |
| > 10000 | 32 | 266 | 10 |  | CC[C@H](C)[C@H](NC(=O)[C@@H](NC(=O)[C@H](CC(C)C)NC(=O)[C@H](CC(C)C)NC(=O)CNC(=O)[C@@H](NC(=O)[C@H](CCCCN)NC(=O)[C@@H]1CCCN1C(=O)[C@@H](N)Cc1ccccc1)[C@@H](C)O)[C@@H](C)CC)C(=O)O |
| > 10000 |  | 3000 | 400 |  | CC[C@H](C)[C@H](NC(=O)[C@H](CO)NC(=O)[C@H](CO)NC(=O)[C@H](C)NC(=O)CNC(=O)[C@H](CCC(N)=O)NC(=O)[C@@H]1CCCN1C(=O)[C@@H](N)Cc1ccccc1)C(=O)O |
|  | 13 | 4.9 | 2.6 | 97 | CC[C@H](C)[C@H](NC(=O)[C@H](CC(C)C)NC(=O)[C@@H](NC(=O)[C@H](Cc1ccc(O)cc1)NC(=O)[C@H](CC(C)C)NC(=O)[C@H](Cc1c[nH]cn1)NC(=O)[C@H](CO)NC(=O)[C@@H](NC(=O)[C@@H]1CCCN1C(=O)[C@@H](N)Cc1ccccc1)[C@@H](C)CC)[C@@H](C)CC)C(=O)O |
| > 10000 | 8.2 | 775 |  |  | CC[C@H](C)[C@H](NC(=O)[C@H](CC(C)C)NC(=O)[C@H](CC(C)C)NC(=O)CNC(=O)[C@H](C)NC(=O)[C@H](CCCCN)NC(=O)[C@@H]1CCCN1C(=O)[C@@H](N)Cc1ccccc1)C(=O)O |
| 1010 |  | 245 | 15 | 122 | CC[C@H](C)[C@H](NC(=O)[C@H](CO)NC(=O)[C@H](CCC(N)=O)NC(=O)[C@H](CO)NC(=O)[C@H](Cc1c[nH]c2ccccc12)NC(=O)[C@H](CC(C)C)NC(=O)[C@@H]1CCCN1C(=O)[C@@H](N)Cc1ccccc1)C(=O)O |
|  | > 10000 |  | 42 | 220 | CSCC[C@H](NC(=O)[C@@H](NC(=O)[C@@H](NC(=O)[C@@H]1CCCN1C(=O)[C@@H](N)Cc1ccccc1)[C@@H](C)O)[C@@H](C)O)C(=O)N[C@@H](CC(N)=O)C(=O)N[C@@H](Cc1ccc(O)cc1)C(=O)N1CCC[C@H]1C(=O)N[C@@H](CC(C)C)C(=O)N[C@@H](Cc1c[nH]c2ccccc12)C(=O)O |
| 22 |  | 8.5 | 1.5 | 59 | CC[C@H](C)[C@H](NC(=O)[C@@H]1CCCN1C(=O)[C@H](Cc1ccc(O)cc1)NC(=O)[C@H](CC(N)=O)NC(=O)[C@H](CCSC)NC(=O)[C@@H](NC(=O)[C@@H](NC(=O)[C@@H]1CCCN1C(=O)[C@@H](N)Cc1ccccc1)[C@@H](C)O)[C@@H](C)O)C(=O)O |
|  | 177 | 490 | 3.8 | 1.7 | CC[C@H](C)[C@H](NC(=O)[C@H](Cc1c[nH]cn1)NC(=O)[C@@H]1CCCN1C(=O)[C@@H](N)Cc1ccccc1)C(=O)N[C@@H](CO)C(=O)N[C@@H](Cc1ccc(O)cc1)C(=O)N1CCC[C@H]1C(=O)N1CCC[C@H]1C(=O)N[C@@H](CC(C)C)C(=O)O |
